# Assays:
# Format in all cases: cell-based, human
# HUVEC-ST cells [1] = assay: MTT cell viability assay on HUVEC-ST cells; conditions: HUVEC-ST, MTT
# Method: (§1) Unless otherwise indicated, in experiments, cells were seeded at an appropriate density for the specific assay into 96-well plates or Petri dishes. They were then incubated in standard culture conditions, which included a temperature of 37 °C, 100% relative humidity, and a 5% CO2 incubator. […] After treatment, the cells were washed with PBS and, depending on the experiment, immediately used for measurement or cultured in a fresh medium for 24 or 48 h. Control cells were treated with a corresponding volume of PBS. Additional controls for solvents were also performed.
# (§2) The principle of the method is a measurement of the absorbance of formazan, a product of the reduction of the water-soluble tetrazolium salt (MTT) by NADPH-dependent cellular oxidoreductases (mainly succinate dehydrogenase) in living cells. Formazan is insoluble in water and precipitates as purple crystals. The amount of formazan is proportional to the number of living and metabolically active cells.
# (§3) After treatment, the cells were washed with PBS and cultured in a fresh medium for 48 h. Subsequently, the medium was aspirated, and an aliquot of 50 µL of 0.05 mg/mL MTT solution was added to each microplate well for 3 h. The formazan crystals were dissolved in dimethyl sulfoxide (DMSO), and the absorbance was measured at a wavelength of λ = 580 nm. The percentage of viable cells was calculated by comparing the absorbance value of the test samples to the absorbance value of the control, taking the absorbance of the control as 100%.
# HUVEC-ST cells [2] = assay: Annexin V FITC/propidium iodide double staining in HUVEC-ST cells; conditions: docetaxel IC50 alone
# Method: as §1
# (§4) This assay is based on the principle that, in viable cells, phosphatidylserine (PS) is located in the inner membrane (side facing the cytoplasm). However, upon induction of apoptosis, PS is translocated to the outer membrane (PS also appears on the necrotic cell surface). The exposed phosphatidylserine can be detected by protein Annexin V stained with FITC dye. The addition of propidium iodide (PI) enabled necrotic cells to be distinguished. Thus, this method is convenient for counting and differentiating live cells from those undergoing apoptosis or necrosis.
# (§5) The analysis was performed according to the manufacturer’s protocol on cells immediately after the treatment and 24 or 48 h postincubation. Samples were analyzed using the flow cytometer LSR® II from Becton Dickinson (San Jose, CA, USA) using an argon laser with a wavelength of λ = 488 nm.
# MCF-7 cells [3] = assay: MTT cell viability assay on MCF-7 cells; conditions: for IC50: Homo sapiens, MCF7, 2 h incubation, breast cancer cells, used for both cell lines, read-out: Drug IC50 concentration from MTT survival curves; for Concentrations giving statistically significant decrease in survival: MCF-7, 2 h incubation with anticancer drug, MTT
# Method: as §1, §2, §3
# HUVEC-ST cells [4] = assay: Mitochondrial membrane potential (JC-1) in HUVEC-ST cells; conditions: anticancer drug IC50 alone 2 h, control = 100%
# Method: as §1
# (§6) The mitochondrial membrane potential was measured with the membrane-permeant JC-1 fluorescent probe. […] Thus, the measurement of the ratio of JC-1 dimer to monomer fluorescence can be used for estimating changes in mitochondrial membrane potential (ΔΨm).
# (§7) The cells were then incubated in complete darkness for 30 min at 37 °C. After incubation, the cells were washed to remove the dye and suspended in fresh HBSS solution. Finally, the fluorescence intensity was measured using a Cary Eclipse spectrofluorometer (Varian, Inc.) at λex/em = 475 nm/530 nm for monomers and at λex/em = 535 nm/590 nm for dimers. Subsequently, the ratio of the fluorescence intensities at 530 nm/590 nm was calculated. The mitochondrial potential in both cell lines was measured immediately after incubation with investigated compounds. The results are expressed as a percentage of the control, considered 100%.
# MCF-7 cells [5] = assay: Mitochondrial membrane potential (JC-1) in MCF-7 cells; conditions: anticancer drug IC50 alone 2 h, control = 100%
# Method: as §1, §6, §7
# MCF-7 cells [6] = assay: Annexin V FITC/propidium iodide double staining in MCF-7 cells; conditions: for Viable cells: docetaxel IC50 alone
# Method: as §1, §4, §5
# [7] = Annexin V FITC/propidium iodide double staining in HUVEC-ST cells; conditions: human, HUVEC-ST cells, doxorubicin IC50 alone, longest postincubation time (48 h), read-out: Viable cells
# Method: as §1, §4, §5
# HUVEC-ST cells [8] = assay: Alkaline comet assay in HUVEC-ST cells; conditions: doxorubicin IC50 alone, 48 h after incubation
# Method: as §1
# The comet assay, also known as the single-cell gel electrophoresis assay, is a highly sensitive and versatile method for measuring single- and double-stranded DNA breaks. The assay uses an electric field to move negatively charged DNA fragments through an agarose gel. The amount of migration reflects the level of DNA damage in the cells.
# The analysis was performed under alkaline conditions, according to the method of Singh et al., on cells immediately after the treatment and 24 or 48 h postincubation. A suspension of cells was mixed with low-melting-point agarose (LMP type XI) and spread onto a microscope glass slide previously coated with standard melting point agarose (NMP type I). After 2 h of cells lysis in a buffer containing (2.5 mol/L NaCl, 100 mmol/L Na2-EDTA, 10 mmol/L TRIS, 1% Triton X-100), DNA unwinding and electrophoresis were carried out in a buffer containing (1 mmol/L Na2-EDTA, 300 mmol/L NaOH) and (29 V, 30 mA). Before analysis, the slides were stained with DAPI solution (2 μg/mL). One hundred randomly chosen cells were analyzed on each slide using a fluorescence microscope Zeiss Axio Scope A1 (Carl Zeiss, Oberkochen, Germany) with a video camera connected to the image-analysis system Lucia-Comet v. 7.60 (Laboratory Imaging, Praha, Czech Republic).
Structure (SMILES),"Decrease in survival at highest concentration (HUVEC-ST cells [1]; 6 µmol/L, 2 h incubation) [%]",AV+/PI+ cells (HUVEC-ST cells [2]; 24 h after incubation) [%],AV+/PI+ cells (HUVEC-ST cells [2]; longest postincubation time (48 h)) [%],IC50 (MCF-7 cells [3]) [µM],Concentrations giving statistically significant decrease in survival (MCF-7 cells [3]) [µmol/L],"Mitochondrial membrane potential ΔΨm, % of control (HUVEC-ST cells [4]) [%]","Mitochondrial membrane potential ΔΨm, % of control (MCF-7 cells [5]) [%]",Viable cells (MCF-7 cells [6]; 24 h after incubation) [%],Viable cells (MCF-7 cells [6]; 48 h after incubation) [%],Concentrations giving statistically significant decrease in survival (HUVEC-ST cells [1]; 2 h incubation with anticancer drug) [µmol/L],viability [7] [%],"Viable cells (MCF-7 cells [3]; MCF-7, doxorubicin 3 µmol/L used alone) [%]",DNA in the comet tail (HUVEC-ST cells [8]) [%],"AV+/PI− cells (undergoing apoptosis) (MCF-7 cells [6]; doxorubicin IC50 alone, 48 h post-incubation) [%]"
CC(=O)O[C@@]12CO[C@@H]1C[C@H](O)[C@@]1(C)C(=O)[C@H](O)C3=C(C)[C@@H](OC(=O)[C@H](O)[C@@H](NC(=O)OC(C)(C)C)c4ccccc4)C[C@@](O)([C@@H](OC(=O)c4ccccc4)[C@H]21)C3(C)C [docetaxel],20,23,26,0.1,≥ 0.02,54,65,53,43,–,–,–,–,–
"COc1cccc2c1C(=O)c1c(O)c3c(c(O)c1C2=O)C[C@@](O)(C(=O)CO)C[C@@H]3O[C@H]1C[C@H](N)[C@H](O)[C@H](C)O1 [doxorubicin, Doxorubicin]",–,–,–,3,≥ 1,73,57,–,–,≥ 0.5,47,54,10,12
